Legend:
[1] = test system: MUS81; set-up: method as in PMID 37352577; conditions: FRET-based DNA cleavage assay; cited from earlier work
[2] = test system: U2OS, HEK293, and CAL51; test: Cell proliferation assay (CyQUANT), combination with cisplatin; format: cell-based; conditions: cisplatin alone, 5 days
Protocol: 7 MUS81 inhibitors synergize with cisplatin to reduce cancer cell viability. (A,B) U2OS cells were treated with DMSO, MU262, or MU876 at the indicated concentrations in combination with a range of cisplatin (0–5 μM) for 96–120 h. Cell viability was assessed by the Cy-Quant assay. The survival was normalized to the DMSO-treated control. Graphs were generated in Graphpad Prism using the nonlinear regression fitting model. n ≥ 3, error bars represent s.d. (C) CAL51 WT cells were treated with DMSO, MU262, or MU876 at the indicated concentrations at each passage over 2 weeks. Cisplatin (12 μM) was added for the last 24 h before harvest. DNA damage was assessed by quantifying γH2AX foci using fluorescence microscopy and CellProfiller software. Data were visualized plotted in R software. Red markers represent the median of γH2AX foci number per nucleus; blue markers represent the percentage of cells with ≥20 γH2AX foci per nucleus. n = 3, error bars represent s.d.; ****p <0.0001 (unpaired, two-tailed t-test). TEXT PRINTED IN THE PICTURE: (C) D: γH2AX foci: 2.4 (DMSO); γH2AX foci: 59.6 (Cisplatin) | (C) MU262: γH2AX foci: 2.3 (1 μM; DMSO); γH2AX foci: 3 (2 μM; DMSO); γH2AX foci: 55.4 (1 μM; Cisplatin); γH2AX foci: 43.2 (2 μM; Cisplatin) | (C) MU876: γH2AX foci: 2.8 (0.25 μM; DMSO); γH2AX foci: 0.9 (0.5 μM; DMSO); γH2AX foci: 48.2 (0.25 μM; Cisplatin); γH2AX foci: 42.6 (0.5 μM; Cisplatin) DOUBTS OF THE COPYIST ABOUT THIS PICTURE: Panel C: the numbers in the blue markers have no measure or unit of their own printed in the picture; the axis title 'γH2AX foci' is given as the measure, but the numbers may stand for another quantity. / Panel C: 'D' is a control column with no concentration; it may not count as a substance. / Panel C: small white print on blue markers; 59.6, 55.4, 48.2, 43.2, 42.6, 2.8 and 0.9 are best readings (3, 5, 6, 8 and 9 are hard to tell apart).
CAL51 WT, CAL51 MUS81^–/–, U2OS, and HEK293 cells were seeded in a 96-well plate and treated with the respective concentration of selected inhibitors. […]

O=C(N/N=C/c1cc(O)c(O)cc1O)c1cc2ccccc2cc1O [Dyngo-4a]
IC50 [1]: 570 nM

N.N.[Cl][Pt][Cl] [cisplatin, reference compound]
cell viability [2]: dose-dependent decrease of viability

— paper PMC12990037, “Discovery of Two Structurally Distinct Classes of Inhibitors Targeting the Nuclease MUS81 and Enhancing Efficacy of Chemotherapy in Cancer Cells” (Journal of Medicinal Chemistry, 2026)
